Experimental findings from US10562920B2, “Ln(III) and Ga(III) metallacrown complexes” (The Regents of the University of Michigan, priority 2015, dated 2020) are described below.

Common to all, as to format: physicochemical
The nature of data set [1]: Ligand triplet state from phosphorescence of Gd3+ analogues. Particulars: T1 = 22 170 cm^−1; Ga4Ln(shi)4. The method, then: (§1) Luminescence data were collected on samples placed into 2.4 mm i.d. quartz capillaries or quartz Suprasil cells. Emission and excitation spectra were measured on a Horiba-Jobin-YvonFluorolog 3 spectrofluorimeter equipped with either a visible photomultiplier tube (PMT) (220-800 nm, R928P; Hamamatsu), a NIR solid-state InGaAs detector cooled to 77 K (800-1600 nm, DSS-IGA020L; Jobin-Yvon), or NIR PMTs (950-1450 nm, H10330-45; 950-1650 nm, H10330-75; Hamamatsu). All spectra were corrected for instrumental functions. Luminescence lifetimes were determined under excitation at 355 nm provided by a Nd:YAG laser (YG 980; Quantel), while the signal was detected in the NIR by the aforementioned PMT (H10330-75). The output signal from the detectors was then fed to a 500 MHz bandpass digital oscilloscope (TDS 754C; Tektronix) and then transferred to a PC for treatment with Origin 8®. Luminescence lifetimes are averages of at least three independent measurements. Quantum yields were determined with a Fluorolog 3 spectrofluorimeter according to an absolute method using an integration sphere (GMP SA). Each sample was measured several times under slightly different experimental conditions. Estimated experimental error for quantum yields determination is 10%.
Phosphorescence can be observed by recording the signal emitted from Ga4Gd(shi)4 in time-resolved mode in the solid state at 77K upon excitation at 350 nm and using a 200 μS delay after the excitation flash (FIG. 9). The 0-0 component of this band represents the energy level of the ligand's triplet state (T1=22,170 cm^−1, 451 nm) which is attributed to the energy level responsible for the main contribution of the transfer to the Ln^3+. The T1 level is sufficiently high in energy to populate the excited states of a wide range of visible and NIR-emitting Ln^3+.
Since the Ga8Ln2(shi)8 dimer compounds were insoluble in all solvents, the solid state photophysical data alone were collected. As with the Ga4Gd(shi)4 compound, the Ga8Gd2(shi)8 complex may be used to examine the ligand-based photophysical properties. […] The solid state ligand phosphorescence was obtained at 77 K using an excitation wavelength of 350 nm and a 100 μs delay (FIG. 11). The profile of the phosphorescence is similar to that of Ga4Gd(shi)4 (FIG. 9), which was expected, since both compounds are formed by the same framework ligand, H3shi. The 0-0 transition was determined to be located at 455 nm, or 21 978 cm^−1. This triplet state energy is slightly lower than that of the Ga4Gd(shi)4 compound (22 170 cm^−1), but still is sufficiently high in energy to sensitize visible (Dy^3+, Tb^3+, Sm^3+) and/or NIR emitting (Dy^3+, Sm^3+, Ho^3+, Yb^3+, Pr^3+, Nd^3+, Er^3+) lanthanides.

A short description of data set [2]: Quantum yields by absolute method using an integration sphere. Here is the method:
as §1

Data set [3] is described as follows: Luminescence lifetimes under excitation at 355 nm. The method, then:
as §1

Data set [4] is described as follows: Hydration number q from lifetimes in deuterated and protic solvents. From the text:
One parameter that can be obtained from the recording of luminescence lifetimes is the hydration number q. […] This non-zero q value is particularly detrimental for the intensity of the luminescence (and to the corresponding quantum yield values) of NIR-emitting lanthanides since the overtones of high-energy vibrations of the solvent molecules create a route for non-radiative deactivation.

[5] abbreviates: from kCH3OH − kCD3OD, equations of footnotes b, c, e, g.

Several values for one entry are separate records, joined by “and”; a condition that tells them apart may be missing. Identical values can stand only once.

Take “[Ga4Tb(shi)4(C6H5CO2)4(C5H5N)(CH3OH)].C5H6N.C5H5N.CH3OH”: in data set [1], the “ΔE (cm^−1), energy gap between ligand triplet state and Ln3+ emissive state” value was 1 770 cm^−1. The “QLn^L (%) (visible)” value is 28.6(1) % in data set [2] (Ga4Ln(shi)4, CD3OD); 23.7(3) % in data set [2] (Ga4Ln(shi)4, CH3OH); 34.7% and 34.7(1) % in data set [2] (Ga4Ln(shi)4, Solid). The “τobs (μs)” value in data set [3] (Ga4Ln(shi)4, CD3OD) was 1960(10) μs; in data set [3] (Ga4Ln(shi)4, CH3OH), 1510(10) μs; in data set [3] (Ga4Ln(shi)4, Solid), 1080(10) μs. For the same substance, the “q (hydration number)” value is 1.2^c in data set [4] (setting [5]) and 0.9^d in data set [4] (qTb = 10.0 × (kCH3OH − kCD3OD − 0.06), footnote d).

For the substance “[YbGa4(shi)4(C6H5CO2)4(C5H5N)(CH3OH)].C5H6N.C5H5N.CH3OH [Ga4Yb(shi)4]”, in data set [1], the “ΔE (cm^−1), energy gap between ligand triplet state and Ln3+ emissive state” value is on record as 11 870 cm^−1. Further, the “QLn^L (%) (NIR)” value in data set [2] (Ga4Ln(shi)4, CD3OD) is 4.29(1) %; in data set [2] (Ga4Ln(shi)4, CH3OH) it was 0.26(1) %; in data set [2] (Ga4Ln(shi)4, Solid), 5.88(2) %. Also, the “τobs (μs)” value in data set [3] (Ga4Ln(shi)4, CD3OD) is reported as 36.6(1) μs; in data set [3] (Ga4Ln(shi)4, CH3OH) it was 2.06(4) μs; in data set [3] (Ga4Ln(shi)4, Solid), 55.7(3) μs. In addition, the “q (hydration number)” value in data set [4] (setting [5]) is 0.7^g.
